Data as given in the supplement of paper PMC10307832.

Tests used:
Experiment in all cases: relative viability (nuclei count vs DMSO), 5 days (fraction); higher = more cells survive
VE-821 + OSI-027 = compound: CS(=O)(=O)c1ccc(-c2cnc(N)c(C(=O)Nc3ccccc3)n2)cc1 [VE-821] + COc1cccc2cc(-c3nc([C@H]4CC[C@H](C(=O)O)CC4)n4ncnc(N)c34)[nH]c12 [OSI-027] (partner 0.5 µM)
How it was run: (§1)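 Lung cancer cell lines in 1536-well plates got either a single drug or a fixed anchor-drug dose together with five library-drug doses (not always all listed) in √10 steps, by pin tool, on the day after seeding. Nuclei were counted after 5 days, and relative viability is the treated-to-vehicle ratio of nuclei counts. Values are medians of duplicate plates.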

Vismodegib + Tozasertib = compound: CS(=O)(=O)c1ccc(C(=O)Nc2ccc(Cl)c(-c3ccccn3)c2)c(Cl)c1 [Vismodegib] + Cc1cc(Nc2cc(N3CCN(C)CC3)nc(Sc3ccc(NC(=O)C4CC4)cc3)n2)n[nH]1 [Tozasertib] (partner 0.1 µM)
How it was run: as §1

Ruxolitinib + Vorinostat = compound: N#CC[C@H](C1CCCC1)n1cc(-c2ncnc3[nH]ccc23)cn1 [Ruxolitinib] + O=C(CCCCCCC(=O)Nc1ccccc1)NO [Vorinostat] (partner 1 µM)
How it was run: as §1

Ruxolitinib + Crizotinib = compound: N#CC[C@H](C1CCCC1)n1cc(-c2ncnc3[nH]ccc23)cn1 [Ruxolitinib] + C[C@@H](Oc1cc(-c2cnn(C3CCNCC3)c2)cnc1N)c1c(Cl)ccc(F)c1Cl [Crizotinib] (partner 1 µM)
How it was run: as §1

| Cell Line | relative viability (VE-821 + OSI-027; first compound 0.08 µM) | relative viability (VE-821 + OSI-027; first compound 0.253 µM) | relative viability (VE-821 + OSI-027; first compound 0.8 µM) | relative viability (VE-821 + OSI-027; first compound 2.53 µM) | relative viability (VE-821 + OSI-027; first compound 8 µM) | relative viability (Vismodegib + Tozasertib; first compound 0.08 µM) | relative viability (Vismodegib + Tozasertib; first compound 0.253 µM) | relative viability (Vismodegib + Tozasertib; first compound 0.8 µM) | relative viability (Vismodegib + Tozasertib; first compound 2.53 µM) | relative viability (Vismodegib + Tozasertib; first compound 8 µM) | relative viability (Ruxolitinib + Vorinostat; first compound 0.08 µM) | relative viability (Ruxolitinib + Vorinostat; first compound 0.253 µM) | relative viability (Ruxolitinib + Vorinostat; first compound 0.8 µM) | relative viability (Ruxolitinib + Vorinostat; first compound 2.53 µM) | relative viability (Ruxolitinib + Vorinostat; first compound 8 µM) | relative viability (Ruxolitinib + Crizotinib; first compound 0.08 µM) | relative viability (Ruxolitinib + Crizotinib; first compound 0.253 µM) | relative viability (Ruxolitinib + Crizotinib; first compound 0.8 µM) | relative viability (Ruxolitinib + Crizotinib; first compound 2.53 µM) | relative viability (Ruxolitinib + Crizotinib; first compound 8 µM) |
| --- | --- | --- | --- | --- | --- | --- | --- | --- | --- | --- | --- | --- | --- | --- | --- | --- | --- | --- | --- | --- |
| SW 900 | 0.459 | 0.444 | 0.527 | 0.552 | 0.382 | 0.52 | 0.574 | 0.56 | 0.426 | 0.435 | 0.587 | 0.746 | 0.774 | 0.707 | 0.881 |  |  |  |  |  |
| NCI-H358 | 0.983 | 0.875 | 0.727 | 0.79 | 0.48 | 0.0964 | 0.104 | 0.104 | 0.103 | 0.0976 | 0.624 | 0.645 | 0.673 | 0.509 | 0.417 | 0.677 | 0.577 | 0.686 | 0.512 | 0.417 |
| ChaGo-K-1 | 0.624 | 0.475 | 0.669 | 0.649 | 0.419 | 0.239 | 0.193 | 0.214 | 0.236 | 0.212 | 0.771 | 0.764 | 0.707 | 0.62 | 0.637 |  | 1.13 | 1.22 | 0.963 | 0.997 |
| NCI-H1755 | 0.795 | 0.709 | 0.636 | 0.755 | 0.632 | 0.568 | 0.575 | 0.534 | 0.556 | 0.524 | 0.749 | 0.713 | 0.766 | 0.712 | 0.61 | 0.87 | 0.897 | 0.887 | 0.784 | 0.476 |
| LCLC-103H | 0.478 | 0.478 | 0.404 | 0.468 | 0.365 | 0.503 | 0.506 | 0.489 | 0.437 | 0.446 | 0.89 | 0.795 | 0.806 | 0.735 | 0.675 | 1.04 | 1.15 | 1.2 | 1.09 | 0.988 |
| HCC-827 | 0.845 | 0.865 | 0.886 | 0.838 | 0.683 | 0.42 | 0.419 | 0.432 | 0.392 | 0.423 |  | 0.871 | 0.767 | 0.751 | 0.84 |  | 0.878 | 0.734 | 0.856 | 0.826 |
| HCC-44 | 0.498 | 0.427 | 0.634 | 0.563 | 0.556 | 0.951 | 0.836 | 0.877 | 0.832 | 0.993 | 1.11 | 1.06 | 1.03 | 1.04 | 1.05 | 0.765 | 0.839 | 0.866 | 0.854 | 0.527 |
| NCI-H727 | 0.721 | 0.624 | 0.619 | 0.54 | 0.355 | 0.785 | 0.619 | 0.644 | 0.53 | 0.62 | 1.2 | 1.19 | 1.4 | 1.12 | 1.49 | 0.93 | 0.799 | 1.1 | 0.832 | 0.962 |
| NCI-H1563 | 0.736 | 0.727 | 0.713 | 0.751 | 0.718 |  |  |  |  |  |  |  |  |  |  | 0.865 | 0.84 | 0.931 | 0.704 | 0.838 |
